This is an account of results in US20060116427A1, “Adapalene polymorphic forms” (priority 2004, published 2006).

Each structure is given as a SMILES string.

Series [1] in a line: Particle size (mean diameter D[4,3]) by laser light scattering, Malvern Mastersizer MS1. It is filed as physicochemical. To be noted: product as obtained, not micronised. As for the experimental part:
According to present invention, when a particles sample is stated to have mean diameter, referred to as D[4,3], higher than X μm, this means that the mean volume of the particles constituting the sample is higher than the volume of a spherical particle with diameter X.
The particle sizes, i.e. mean diameter values D[4,3], were determined with the known technique of laser light scattering using a Malvern Mastersizer MS1 instrumentation under the following operative conditions: • 300RF mm lens with laser beam length of 2.4 mm; • 100 mg sample dispersed in 100 ml of isopar and 0.5 ml of a 2% solution of lecithin in isopar, with 3 min presonication and 2500 rpm stirring rate.

Series [2] in a line: Stability of the solid form at room temperature. It is filed as physicochemical.

In the case of `COc1ccc(-c2ccc3cc(C(=O)O)ccc3c2)cc1C12CC3CC(CC(C3)C1)C2` [adapalene amorphous Form, 6-[3-(1-adamantyl)-4-methoxyphenyl]-2-naphthoic acid], the “mean D[4,3] diameter of particles” value in series [1] (listed as Adapalene Amorphous Form) is given as “approx. 15 μm”.

Regarding `COc1ccc(-c2ccc3cc(C(=O)O)ccc3c2)cc1C12CC3CC(CC(C3)C1)C2` [adapalene crystalline Form α, 6-[3-(1-adamantyl)-4-methoxyphenyl]-2-naphthoic acid], the “stability of the polymorphic form” value in series [2] is reported as “stable at room temperature”. Further, the “mean D[4,3] diameter of particles” value is recorded as “approx. 15 μm” in series [1] (listed as Adapalene Crystalline Form α) and “about 15 μm” in series [1] (listed as adapalene crystalline Form a).
